Values of other authors as cited in patent US20040058899A1, “Use of epothilones and analogs in conjunction with ophthalmic surgery” (priority 2002, published 2004).

System: tumor-implanted mice
Settings: for toxic effects / animal deaths: comparably effective doses

Row | SMILES | toxic effects / animal deaths | tumor regression
1 | CC(=O)O[C@H]1C(=O)[C@@]2(C)[C@H]([C@H](OC(=O)c3ccccc3)[C@]3(O)C[C@H](OC(=O)[C@H](O)[C@@H](NC(=O)c4ccccc4)c4ccccc4)C(C)=C1C3(C)C)[C@]1(OC(C)=O)CO[C@@H]1C[C@@H]2O [paclitaxel] | caused some animal deaths | 
2 | C/C1=C/C[C@@H](/C(C)=C/c2csc(C)n2)OC(=O)C[C@H](O)C(C)(C)C(=O)[C@H](C)[C@@H](O)[C@@H](C)CCC1 [deoxyepothilone B] | without any noticeable toxic effects | complete tumor regression
3 | COc1cccc2c1C(=O)c1c(O)c3c(c(O)c1C2=O)C[C@@](O)(C(=O)CO)C[C@@H]3O[C@H]1C[C@H](N)[C@H](O)[C@H](C)O1 [adriamycin] | caused some animal deaths | 
